This is an account of results in publication PMC5341405, “Lapachol, a compound targeting pyrimidine metabolism, ameliorates experimental autoimmune arthritis” (Arthritis Research & Therapy, 2017).

For one series, the system named is murine CD4 T cells. The series is described as follows: Proliferation assay of murine CD4 T cells (dye dilution, flow cytometry). The class given is cell-based, C57BL/6 mice. An excerpt: (§1) Human CD4 T cells were purified from the whole blood of healthy volunteers. Briefly, peripheral blood mononuclear cells (PBMCs) were isolated by Percoll gradient (Sigma-Aldrich, St. Louis, MO, USA). CD4 T cells were isolated from PBMCs using Isolation Kit (Miltenyi Biotec, Bergisch Gladbach, Germany). For murine CD4 T cells, lymph nodes from naive C57BL/6 male mice were harvested, and CD4 T cells were purified using Isolation Kit (Miltenyi Biotec, Bergisch Gladbach, Germany) according to the manufacturer’s recommendations.
(§2) A total of 1 × 10^5 CD4 T cells were labeled with 1 μM Dye Efluor® 670 (eBioscience, San Diego, CA, USA) for 15 min at 37 °C and cultured in RPMI-1640 10% FBS for 4 days in a 96-well U-bottom plate (Falcon, Franklin Lakes, New Jersey, USA) with the LAP salt diluted in RPMI-1640 (10, 30, and 100 μM), LEF diluted in RPMI-1640 (10, 30, and 100 μM; Arava®, Sanofi, France) and/or uridine (30, 100, and 300 μM; Sigma-Aldrich, St. Louis, MO, USA) in the presence of anti-CD3 (3 μg/ml) and anti-CD28 (1.5 μg/ml). The proliferation of CD4 T cells was determined by dye dilution in flow cytometry analysis. The results were expressed as the percentage of suppression using the following formula: [proliferation of CD4 T cells only – (proliferation of T CD4 cells with LEF or LAP)/proliferation of CD4 T cells only] × 100.

For the next series, the system named is human CD4 T cells. The series is described as follows: Proliferation assay of human CD4 T cells (dye dilution, flow cytometry). The class given is cell-based.
Description: as §1, §2

Series [1] has as its system collagen-induced arthritis (CIA) in DBA1/J mice. The series is described as follows: Collagen-induced arthritis (CIA). The class given is in vivo. Here is the method: (§3) Male DBA/1 J mice were injected i.d. at the base of the tail with 200 μg bovine type II collagen (CII; a gift from Dr. David D. Brand, University of Tennessee Health Science Center) emulsified in Freund’s complete adjuvant (CFA) on day 0. Mice were boosted i.d. with CII (200 μg emulsified in Freund’s incomplete adjuvant (IFA)) on day 21. Mice were monitored daily for signs of arthritis. Scores were assigned based on erythema, swelling, or ankylosis present in each paw on a scale of 0 to 3, giving a maximum score of 12 per mouse. After arthritis induction, mice were treated orally with LAP (3 mg/kg and 10 mg/kg) or LEF (3 mg/kg) or saline daily. The clinical score was addressed every day after collagen boost. All mice were euthanized for histologic assessment of the hind limbs 4 weeks after the boost.
Femur-tibial joints were collected 4 weeks after CII boost, fixed in 4% (vol/vol) buffered formalin and decalcified in 10% EDTA for 2–3 weeks. The tissues were then trimmed, dehydrated in ethanol, and embedded in paraffin for the preparation of the slides. Histological assessment was carried out following routine staining. Joint sections were stained with hematoxylin and eosin (H&E) to analyze synovitis (inflammatory cell influx and synovial hyperplasia) or Safranin-O to visualize proteoglycan depletion and cartilage destruction. The severity of the joint damage was scored according to the criteria described by Wang et al.: 0 = no destruction; 1 = minimal erosion; 2 = slight to moderate erosion in a limited area; 3 = more extensive erosion; 4 = general destruction.
Interleukin (IL)-17 and interferon (IFN)-γ cytokines were measured by enzyme-linked immunosorbent assay (ELISA) from hind paw homogenate of an individual mouse using antibodies according to the manufacturer’s instructions (R&D Systems, Minneapolis, MN, USA). The results were expressed as pg of cytokine/mg of tissue.
Myeloperoxidase (MPO) activity in tissue homogenates was used as an index of neutrophil infiltration into paws from CIA mice as previously described.

Series [2] in a line: Tolerability and serum liver enzymes during CIA protocol. The class given is in vivo, DBA1/J mice. The protocol: as §3
Serum concentrations of aspartate aminotransferase (AST) or alanine aminotransferase (ALT) were measured using commercial kits according to the manufacturer’s instructions (ID Labs Biotechnology Inc., London, Canada).

Series [3] concerns antigen-induced arthritis (AIA) in C57BL/6 mice. The series can be described thus: Antigen-induced arthritis (AIA). The class given is in vivo.
The next series relates to DHODH. Set-up: method as in PMID 10658902. The conditions noted are these: cited from earlier work.
[4] abbreviates: 10, 30, and 100 μM, 4 days, anti-CD3/CD28.
The mark [5] stands for this setting: 10 mg/kg orally, recall with mBSA 100 μg/ml for 96 h.

`CC(C)=CCC1=C(O)C(=O)c2ccccc2C1=O` [LAP, 2-hydroxy-3-(3methyl-2-butenyl)-1,4-naphthoquinone]: in the series with murine CD4 T cells (setting [4]), the “effect on proliferation of murine CD4 T cells” value was “inhibited the proliferation of murine CD4 T cells in a dose-dependent manner”. The “suppression of proliferation compared with LEF” value in the series with murine CD4 T cells (murine CD4 T cells, same equivalent concentrations) is “greater ability to suppress the proliferation”; in the series on human CD4 T cells (human CD4 T cells, same equivalent concentrations) it was “greater ability to suppress the proliferation”. Moreover, the “effect on proliferation of human CD4 T cells” value in the series on human CD4 T cells (setting [4]) is “dose-dependent inhibition of human T-cell proliferation”. Also, in the series with human CD4 T cells (human CD4 T cells, uridine 30, 100, and 300 μM), the “antiproliferative effect in the presence of uridine” value is “uridine was able to reverse the antiproliferative effect of LAP in a dose-dependent manner”. Moreover, the “severity of arthritis (clinical score and number of affected paws)” value in series [1] (3 mg/kg and 10 mg/kg orally daily, both doses) is “markedly attenuated the severity of arthritis”. Besides, the “IL-17A levels in hind paws” value in series [1] (dose of 10 mg/kg orally daily, 4 weeks after boost, ELISA) is on record as “significant reduction in IL-17A levels”. For the same molecule, the “MPO activity in hind paws (neutrophil infiltration)” value in series [1] (orally daily, 4 weeks after boost, vs vehicle-treated CIA mice) is on record as “reduced MPO activity”. Moreover, the “histopathological features of arthritis severity (H&E, Safranin-O, knee joint)” value in series [1] (orally daily, 4 weeks after boost, vs vehicle-treated group) is “markedly reduced all histopathological features of arthritis severity”. Further, in series [2] (3 mg/kg and 10 mg/kg orally daily, CIA protocol, 4 wk after boost), the “serum levels of ALT or AST” value is recorded as “did not alter the serum levels of ALT or AST”. In addition, in series [2] (3 mg/kg and 10 mg/kg orally once a day for 4 weeks, CIA mice), the “tolerability (general symptoms of toxicity: piloerection, diarrhea, weight loss, prostration)” value is on record as “well tolerated without apparent side effects”. Further, the “leucocyte infiltration into the knee joint” value in series [3] (10 mg/kg orally once a day over 9 days, 6 h after mBSA challenge) is recorded as “remarkable reduction in leucocyte infiltration”. Also, the “serum levels of anti-mBSA total IgG” value in series [3] (10 mg/kg orally once a day over 9 days, day 21) is recorded as “did not find differences”. The “mBSA-specific production of IFN-γ by draining lymph node cells and splenocytes” value in series [3] (setting [5]) is “significantly reduced”. Also, the “mBSA-specific production of IL-17 by draining lymph node cells and splenocytes” value in series [3] (setting [5]) is reported as “significantly reduced”. For the same molecule, the “inhibition of DHODH activity” value with DHODH is “can inhibit DHODH activity”.
